This is an account of results in patent US9649373B2, “Neoseptins: small molecule adjuvants” (THE SCRIPPS RESEARCH INSTITUTE, priority 2013, dated 2017).

Data set [1] deals with type I interferon response. The experiment in a line: Type I interferon response, release of INF-β / INF-α (FIG. 2). The data set is classed as cell-based.
Data set [2] can be described thus: Overt toxicity on in vivo administration as adjuvant. The note with it: at the maximum doses capable of administration. The text has this:
Thus, a contemplated Compound of Formula I acts as an agonist at the TLR4 receptor in that it binds to the TLR4 receptor of a cell and triggers a response by that cell, thereby mimicking the action of LPS, without the toxic result from using LPS as an adjuvant.
It is remarkable that such a small molecule can display such exquisite structural selectivity for activating the immune response and to do so in a way that is so mechanistically specific and well-defined. {See, (a) Vogel Clin. Infect. Dis. 30 (Suppl 3):S266-S270 (2000); (b) Guy, Nat. Rev. Microbiol. 5:505-517 (2007); (c) Johnson, Curr. Top. Med. Chem. 8:64-79 (2008); and (d) Persing et al., Trends Microbiol. 10:S32-S37 (2002) and the citations therein for the procedures utilized.]

In data set [3] the test system is C57BL/6J mice. The experiment in a line: In vivo adjuvant effect, intramuscular co-injection with ovalbumin, serum OVA-specific IgG ELISA. Also noted: species or system mouse. The protocol: FIG. 3, in two panels as FIG. 3A and FIG. 3B, are graphs that illustrate ELIZA results for the adjuvant effect of neoseptin-3. In FIG. 3A, adjuvants were mixed with ovalbumin (OVA, 100 μg) and injected intramuscularly into C57BL/6J mice at the indicated doses. Two immunizations were administered with a booster given at 7 days. In FIG. 3B, LPS (0.2 mg/kg), neoseptin-3 (250 mg/kg) or monophosphoryl lipid A from Salmonella minnesota R595 (MPLA) (0.2 mg/kg) were mixed with ovalbumin (OVA, 0, 1, 10, and 100 μg) Serum levels of OVA-specific IgG were measured (ELISA) on indicated days post-immunization.
FIG. 9 is a graph similar to FIG. 3 showing anti-olvalbumin titers at 14 days post immunization using adjuvants with ovalbumin (OVA, 100 μg) and injected intramuscularly into C57BL/6J mice. The adjuvants used were neoseptin-3, LPS, MPLA, and alum in the amounts shown.
It is remarkable that such a small molecule can display such exquisite structural selectivity for activating the immune response and to do so in a way that is so mechanistically specific and well-defined. {See, (a) Vogel Clin. Infect. Dis. 30 (Suppl 3):S266-S270 (2000); (b) Guy, Nat. Rev. Microbiol. 5:505-517 (2007); (c) Johnson, Curr. Top. Med. Chem. 8:64-79 (2008); and (d) Persing et al., Trends Microbiol. 10:S32-S37 (2002) and the citations therein for the procedures utilized.] […]

Data set [4] addresses T1, TLR4 (Mus musculus, UniProt Q9JHF9+Q9QUK6).
T1 sequence (Q9QUK6 26-835): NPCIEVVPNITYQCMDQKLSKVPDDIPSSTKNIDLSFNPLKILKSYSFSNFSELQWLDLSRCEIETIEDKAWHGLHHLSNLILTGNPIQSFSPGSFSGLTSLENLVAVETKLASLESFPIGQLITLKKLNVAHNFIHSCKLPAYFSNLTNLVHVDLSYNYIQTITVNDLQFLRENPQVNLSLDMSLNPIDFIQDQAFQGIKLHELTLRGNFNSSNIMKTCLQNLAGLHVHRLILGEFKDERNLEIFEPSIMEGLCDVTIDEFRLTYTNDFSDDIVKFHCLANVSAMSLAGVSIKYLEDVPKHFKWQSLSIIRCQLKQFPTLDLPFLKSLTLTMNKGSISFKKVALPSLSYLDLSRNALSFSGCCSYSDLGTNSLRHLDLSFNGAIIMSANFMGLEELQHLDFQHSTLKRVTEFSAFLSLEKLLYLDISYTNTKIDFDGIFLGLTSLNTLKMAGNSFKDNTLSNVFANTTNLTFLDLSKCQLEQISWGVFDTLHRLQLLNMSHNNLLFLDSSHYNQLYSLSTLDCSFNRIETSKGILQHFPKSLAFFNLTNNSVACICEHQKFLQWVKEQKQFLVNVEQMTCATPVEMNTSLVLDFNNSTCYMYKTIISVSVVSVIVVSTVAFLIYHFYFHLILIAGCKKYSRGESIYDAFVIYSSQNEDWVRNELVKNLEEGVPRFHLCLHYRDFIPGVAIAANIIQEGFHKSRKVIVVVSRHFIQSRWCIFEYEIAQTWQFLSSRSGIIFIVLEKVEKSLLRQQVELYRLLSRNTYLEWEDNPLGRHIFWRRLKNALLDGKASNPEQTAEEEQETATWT
T1 sequence (Q9JHF9 19-160): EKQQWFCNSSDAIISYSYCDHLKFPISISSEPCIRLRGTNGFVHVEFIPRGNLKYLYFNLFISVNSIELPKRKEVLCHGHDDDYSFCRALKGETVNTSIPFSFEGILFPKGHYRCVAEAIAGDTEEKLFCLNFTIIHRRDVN
The experiment in a line: Mouse peritoneal macrophage agonist assay (TNF-α ELISA). The note with it: for EC50: read-out: EC50 of dose-response curves, TLR4 agonist activity; for TLR4 agonist efficacy: relative to neoseptin-1 or LPS. The data set is classed as cell-based. The arrangement: used to inject mice intraperitoneally; endogenous in cells; host or cells: mouse peritoneal exudate cells (thioglycolate-elicited peritoneal macrophages). The protocol:
Mouse Peritoneal Macrophage Agonist Assay
Three to four days prior to PEC isolation, 3 mL syringes filled with Brewer's thioglycolate medium are used to inject mice intraperitoneally with 1.5-2 mL through a 25-gauge needle.
Immediately prior to isolation, mice are anaesthetized under isofluorane vapour (2-5% v/v, 2% O2).
5 mL syringes filled with sterile PBS are used to recover PECs by lavage through an 18-gauge needle. Once obtained, exudate is added to 5 mL of PEC recovery solution in a 15 mL conical tube, and stored on ice.
Tubes containing exudate are centrifuged for 3 minutes at 1200 rpm in a tabletop centrifuge, and supernatant is replaced with 1-4 mL of PEC medium. Pelleted cells are resuspended by pipeting, and a 10 μL aliquot is taken for cell enumeration.
The concentration of each cell sample is adjusted to 1×10^6 cells/mL using PEC medium, and 100 μL of each sample (1×10^5 cells) is added to a tissue culture-treated 96 well flat-bottomed plate, leaving two columns (11 & 12) unoccupied per plate. Plates are incubated at 37° C./5% CO2 in a humidified incubator for at least 1 hour to permit cells to adhere to the plate, during which time 125-03 solutions are prepared.
Following preincubation of PECs in the 96-well plate, non-adherent PECs are discarded along with residual medium, and 50 μM of compounds to be assayed are added to the cells. Plates are incubated for a further 4 hours.
Conditioned supernatant is collected into another 96 well plate and retained for TNF ELISA Assay. The cells are replaced with 100 μL/well of a 1:4 MTT solution:PEC medium solution (MTT 1 mg/mL final concentration). PEC plates are incubated at 37° C./5% CO2 overnight (about 18 hours). Supernatants are removed and 100 μL DMSO is added to each well. The plate is shaken for 10 minutes and read at 570 nm. This value is used to measure the cytotoxicity of the compounds.
Coat ELISA plate with 100 μL/well of capture antibody in Coating Buffer. Seal the plate and incubate overnight (about 18 hours) at 4° C.
Aspirate wells and wash 4× with 300 μL/well Wash Buffer. Blot plate on absorbent paper to remove residual buffer.
Dilute 1 part 5× concentrated Assay Diluent with 4 parts DI water. Block wells with 200 μL/well of 1× Assay Diluent. Incubate at room temperature for 1 hour or 4° C. overnight (about 18 hours).
Aspirate and wash at twice with Wash Buffer.
Using 1× Assay Diluent to perform 2-fold serial dilutions of the top standards to make the standard curve for a total of 8 points: 1000, 500, 250, 125, 62.5, 31.25, 15.625, 0 pg/ml. Add 100 μL/well of top standard concentration to the appropriate wells. Add 65 μL/well assay diluent plus 35 μL samples to the wells. Seal the plate and incubate at room temperature for 2 hours [or overnight (about 18 hours) at 4° C.]
Aspirate/wash 4 times with wash buffer.
Add 100 μL/well of detection antibody diluted in 1× Assay diluent. Seal the plate and incubate at room temperature for 1 hour.
Aspirate/wash. Repeat for a total of 4 washes.
Add 100 μL/well of Avidin-HRP diluted in 1× Assay diluent. Seal the plate and incubate at room temperature for 30 minutes.
Aspirate and wash. Repeat for a total of 5 washes.
Add 100 μL/well of Substrate Solution to each well. Incubate plate at room temperature for 2-3 minutes.
Add 50 μL/well of Stop Solution, and read plate at 450 nm.

Data set [5] has as its target T2, MD-2 (UniProt Q9JHF9).
T2 sequence (Q9JHF9 1-160): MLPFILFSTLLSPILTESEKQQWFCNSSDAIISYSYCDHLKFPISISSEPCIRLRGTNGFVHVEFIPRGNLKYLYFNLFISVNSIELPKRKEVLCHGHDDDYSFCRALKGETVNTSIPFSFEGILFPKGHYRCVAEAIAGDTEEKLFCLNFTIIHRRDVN
The data set can be described thus: Isothermal titration calorimetry binding to MD-2. Background: ITC needs no label: the signal is the heat of the interaction.

Data set [6] deals with T1, TLR4. The data set can be described thus: TNF-α production in macrophages from mice with disabling germline mutations or knockouts of TLRs and downstream signaling proteins. The note with it: for Genes on which induced TNF-α production depends / mechanism of signaling: mutant or knockout mouse macrophages, 5 ng/ml LPS or 50 mM neoseptin-3 (FIG. 1). The arrangement: normalized TNF-α production in macrophages from mice; endogenous in cells; host or cells: macrophages from wild-type and mutant/knockout mice. The data set is classed as cell-based. The protocol:
FIG. 1 in two parts as FIG. 1A and FIG. 1B are bar graphs that illustrate an assay of normalized TNF-α production in macrophages from mice containing disabling germline mutations or knockouts of genes encoding TLRs and downstream signaling proteins using 5 ng/ml of LPS or […] neoseptin-3.
(§1) See, (a) mutagenetix.utsouthwestern.edu.; (b) Arnold et al., (2012) ENU-induced phenovariance in mice: Inferences from 587 mutations. BMC Res. Notes. 5, 577-0500-5-577.

Data set [7] concerns NF-κB, P38 MAPK, JNK, and Erk signaling pathways. The data set can be described thus: Activation of signaling pathways. It counts as cell-based.
Text: as §1

On to `CC(C)(C)OC(=O)[C@H](CCc1ccccc1)NC(=O)c1ccc(N)c(CCc2ccc(O)cc2)c1` [neoseptin-3], for which the “Release of INF-β (type I interferon response) compared with LPS” value in data set [1] was “much more effectively stimulates a type I interferon response resulting in the release of INF-β”. Besides, the Overt toxicity entry in data set [2] is given as “does not display the overt toxicity”. In data set [3] (co-injected with ovalbumin, intramuscular (FIG. 3)), the “In vivo adjuvant immune response compared with LPS” value is listed as “more sustained immune response of equal or greater efficacy than LPS”. For the same compound, the “In vivo adjuvant immune response compared with alum” value in data set [3] (ovalbumin 100 μg i.m., 14 days post immunization (FIG. 9)) is listed as “much more robust immune response in vivo than does alum”. Moreover, in data set [4], the EC50 – broadly, the midpoint of the concentration-response curve – fell in the range of 15 to 25 µM and the TLR4 agonist efficacy entry is “nearly matching the efficacy of LPS”. In data set [4] (with eritoran), the “Effect of antagonist eritoran on TLR4 agonist activity” value is listed as “blocked by the antagonist eritoran”. The “Affinity for MD-2 relative to MPLA” value in data set [5] (ITC direct binding) is recorded as “slightly better than that of MPLA itself”. Further, in data set [5] (ITC, 20 μM neoseptin-3 with 350 μM MD-2), the affinity, expressed as Kd, was 11.7 µM. Moreover, the “Genes on which induced TNF-α production depends / mechanism of signaling” value in data set [6] is “dependent on TLR4, MD-2, MyD88, Trif, TRAM, MAL, IRAK4, and IKBKG”. Besides, in data set [6] (unlike LPS), the “CD14 dependence of induced TNF-α production” value was “independent of CD14”. For the same compound, in data set [7], the “Activation of signaling pathways” value is “activate the NF-κB, P38 MAPK, JNK, and Erk signaling pathways”.

Take `N[C@@H](Cc1ccccc1)C(=O)Nc1ccc(C(=O)N[C@@H](CCc2ccccc2)C(=O)O)cc1CCc1ccc(O)cc1` [MM-1-88]: the TLR4 agonist efficacy entry in data set [4] was “significant enhancement in TLR4 agonist efficacy”.

Turning to `N[C@@H](Cc1ccccc1)C(=O)Nc1ccc(C(=O)N[C@@H](CCc2ccccc2)C(=O)O)cc1OCCc1ccc(O)cc1` [neoseptin-1], the “Genes on which induced TNF-α production depends / mechanism of signaling” value in data set [6] is given as “established to be TLR4”.

For `CC(C)(C)OC(=O)[C@H](CCc1ccccc1)NC(=O)c1ccc(N)c(OCCc2ccc(O)cc2)c1` [neoseptin-4], in data set [4], the 50% effective concentration (EC50) fell in the range of 15 to 25 µM and the TLR4 agonist efficacy result was “nearly matching the efficacy of LPS”.
